Data: article PMC9606171, “Synthetic PPAR Agonist DTMB Alleviates Alzheimer’s Disease Pathology by Inhibition of Chronic Microglial Inflammation in 5xFAD Mice” (Neurotherapeutics, 2022)

Legend:
BV2 cells = assay: Western blot of NF-κB, NLRP3 and ASC in BV2 cells; assay type: cell-based, mouse
Method: The BV2 mouse microglia cell line was received from Professor K. H. Suk (Kyungpook National University, Korea). BV2 cells were cultured with Dulbecco’s Modified Eagle Medium (DMEM) (Hyclone, Logan, UT, USA), containing 5% fetal bovine serum (FBS, Hyclone) and 50 μg/mL of gentamicin (Lonza, Switzerland), in a 5% CO2 incubator with a humidified atmosphere at 37 °C. RAW 264.7 macrophage cells were cultured with DMEM that contains 10% FBS and 1% penicillin/streptomycin in a 5% CO2 incubator with a humidified atmosphere at 37 °C.
Cells were lysed with lysis buffer containing 50 mM Tris (pH 7.4), 140 mM NaCl, 5 mM EDTA, and a protease inhibitor tablet, followed by sonication. Lysate protein concentrations were determined using Bradford reagents (AMERSCO, MA, USA). Proteins were resolved by sodium dodecyl sulfate (SDS) polyacrylamide gel electrophoresis, transferred to nitrocellulose membranes (Pall Corporation, New York, NY, USA), and incubated with blocking buffer (5% nonfat dry milk in TBS and 0.1% Tween 20) for 30 min. Western blot analyses were performed using primary antibodies against NF-κB, NLRP3, ASC, nicastrin, pen2 (Cell Signaling Technology, Danvers, MA, USA), Aph1 (Invitrogen), amyloid C-terminal fragment (Santa Cruz Biotechnology, Dallas, TX, USA), and GAPDH (Bethyl Laboratories, Mongomery, TX, USA). Secondary antibodies of rabbit (Promega), rat, and goat (Bethyl Laboratories) were used, and detection was performed with SUPEX ECL reagent (Neuronex, Korea) and an ImageQuant LAS-4000 (GE Healthcare, MA, USA), according to the manufacturer’s instructions. The integrated blot density was quantified through ImageJ.

BV2 microglia cells = assay: ELISA of proinflammatory cytokines, BV2 microglia cells; assay type: cell-based, mouse; details: LPS or pre-aggregated human Aβ1-42, 24 h
Method: We measured cytokine level (TNF-α, IL-1β, and IL-6) in the media of LPS (1 μg/mL) and human Aβ1-42 (5 μg/mL)-treated BV2 microglia cells and primary microglia. Human Aβ1-42 (AnaSpec, Fremont, CA, USA) were pre-aggregated in the incubator for 24 h before the treatment to the cells. BV2 cells and primary microglia cells were seeded on 12-well plates (SPL) at a density of 1 × 10^5 cells/well cultured in 1 mL of complete media. After 12 h, LPS or human Aβ1-42 were treated to cells and were further incubated for 24 h with DTMB. ELISA experiments were conducted by using mouse TNF-α ELISA kit (Invitrogen, BMS607-3TEN), mouse IL-1β ELISA kit (Invitrogen, BMS6002), and mouse IL-6 ELISA kit (Invitrogen, BMS603-2) according to the manufacturer’s instruction.

primary microglia [1] = assay: Quantitative PCR of NF-κB target genes in primary microglia; assay type: cell-based, mice
Method: (§1) Primary microglia culture was conducted as described in a previous study. Mice at postnatal day 3 mice were used for the preparation of primary microglia. Newborn mice pups were anesthetized in ice and then sacrificed. Isolated cortex and hippocampus were collected after removing the meninges. Brain tissues were dissociated by incubating in HBSS (Gibco, Gaithersburg, MD, USA) with trypsin (2.5%) for 15 min. Cell homogenates were then incubated in M-CSF (20 ng/mL, R&D Systems) supplemented with DMEM-F12 medium with 10% fetal bovine serum, 10% horse serum, 1% GlutaMAX (Gibco, MD, USA), and 1% penicillin/streptomycin (Welgene, Korea). After 10 days, microglia were purified through shaking at 260 rpm for 2 h.
Total RNA was isolated using TRI Reagent (Molecular Research Center, Cincinnati, OH, USA). RNA was reverse transcribed using the ImProm-II™ Reverse Transcription System (Promega) according to the manufacturer’s instructions. For detection and quantification, a StepOnePlus Real-Time PCR System (Applied Biosystems, Foster City, CA, USA) was used with FastStart Universal SYBR Green Master (Roche, Basel, Switzerland). Real-time qPCR data were analyzed using the comparative CT method. Sample sizes were 10–15 mice per group.

5xFAD mice = assay: Morris water maze in 5xFAD mice; assay type: in vivo; details: 10 mg/kg orally, 3 months
Method: DTMB was synthesized from Daejung Chemicals (Korea) and was dissolved in dimethyl sulfoxide (Sigma Aldrich, St. Louis, MO, USA) for cell-based experiments. To evaluate the effects of DTMB on 5xFAD mice, DTMB (10 mg/kg) and vehicle (1% carboxymethylcellulose and 10% DMSO) were orally administrated to four groups (wild-type, wild-type + DTMB, 5xFAD, and 5xFAD + DTMB) with a 6 day per week for 3 months.
A white water maze tank (120 cm diameter) was filled with water containing white non-toxic tempera paint to make the water opaque. The maze tank was divided into four quadrants, and four different visual cues were placed at each cardinal point. The water temperature was set to 20–22 °C. The Morris water maze experiment was divided into a training session, during which the mice were placed in the tank to find the platform for five consecutive days, followed by a probe test on day 6. Each mouse was trained over three trials per day and the starting quadrant was different for each trial. The duration of each training trials was 1 min and we guided the mice to the platform thereafter. In the probe test on day 6, the platform was removed, and each mouse was allowed to swim for 60 s. Target quadrant occupancy was measured automatically using a SMART v2.5 video tracking system (Panlab, TX, USA). Sample sizes were 20–25 mice per group.

primary microglia [2] = assay: ELISA of proinflammatory cytokines, primary microglia; assay type: cell-based, mice; details: LPS or pre-aggregated human Aβ1-42, 24 h
Method: as §1
We measured cytokine level (TNF-α, IL-1β, and IL-6) in the media of LPS (1 μg/mL) and human Aβ1-42 (5 μg/mL)-treated BV2 microglia cells and primary microglia. Human Aβ1-42 (AnaSpec, Fremont, CA, USA) were pre-aggregated in the incubator for 24 h before the treatment to the cells. BV2 cells and primary microglia cells were seeded on 12-well plates (SPL) at a density of 1 × 10^5 cells/well cultured in 1 mL of complete media. After 12 h, LPS or human Aβ1-42 were treated to cells and were further incubated for 24 h with DTMB. […]

HMO6 cell line = assay: Cell viability assay (MTT), HMO6; assay type: cell-based; details: 48 h
Method: Cell viability was measured by chromogenic assay involving the biological reduction of 3-(4,5-dimethyl-thiazol-2-yl)-2,5-diphenyltetrazoliumbromide (MTT) to formazan in living cells. Briefly, cells were seeded in 96-well plates in a final volume of 100 μL. After 24 h, the culture media were replaced with fresh media containing DTMB compounds, and the cells were cultured for another 48 h. Next, MTT (5 mg/mL in PBS) was added to the culture medium. The cells were incubated for 1 h in the dark at 37 °C, and the supernatant was then removed from the well. Total MTT solvent (4 mM HCl and 0.1% Nonidet P-40, both in isopropanol) was added to dissolve the formazan crystal, and absorbance was measured at 570 nm using a microplate reader Infinite 200 Pro NanoQuant microplate reader (TECAN, Switzerland).

Structure (SMILES): COc1ccc(-c2cc(=O)oc3c(C)c(OC(=O)[C@H](Cc4c[nH]c5ccccc45)NC(=O)OC(C)(C)C)ccc23)cc1 [DTMB]
- protein level of ASC (BV2 cells): not changed
- protein level of NF-κB (BV2 cells): decreased
- protein level of NLRP3 (BV2 cells): decreased
- level of cytokines (TNF-α, IL-1β, IL-6) induced by inflammatory signals (BV2 microglia cells): dramatically reduced
- mRNA levels of NFκB (primary microglia [1]): no change
- expression of NF-κB target genes Il-6, Il-1β, and Inos (primary microglia [1]; primary microglia, mRNA): decreased
- expression of anti-inflammatory marker (Arg-1) (primary microglia [1]; primary microglia, mRNA): induced
- target quadrant occupancy (probe test, day 6) (5xFAD mice): markedly improved
- level of cytokines (TNF-α, IL-1β, IL-6) induced by inflammatory signals (primary microglia [2]): dramatically reduced
- cytotoxicity (MTT) (HMO6 cell line): no cytotoxicity
